The results in this text go back to patent US12171901B2, “Powdered collagen wound care compositions” (priority 2021, dated 2024).

SMILES strings stand for the structures. Values joined by “and” are separate entries in the source; they are usually repeats but may differ in a detail not shown here. Identical values can stand only once.

In this series the test system is skin of female albino New Zealand White rabbits. Description: Rabbit skin irritation. On the procedure: Within 24 hours to 4 hours before test application, the backs of female albino New Zealand White rabbits were clipped free of hair, exposing 2 test and 2 control areas on each side of the spine with a size of approximately 15 cm×15 cm. The two test sites are located on the left cranial section and the right caudal section of the dorsal region. The two control sites are located on the left caudal and right cranial section of the dorsal region. FIG. 2 depicts the arrangement of test and control sites. The exposed skin is wiped with alcohol and dried. Rabbits of acceptable skin quality were selected and used for testing.
A 25×25 mm gauze patch saturated with 0.5 mL of 0.9% NaCl is used for the control and applied to the clipped control sites. The patches are secured using hypoallergenic, waterproof, surgical tape over the test and control sites. The animal's trunk is securely wrapped so as to maintain the position of the patches. Patches are left applied for a minimum of four hours.
After patch removal, the test and control sites were then scored for erythema and edema at 1, 24, 48 and 72 hours after patch removal. Only the 24, 48, and 72 hour observations were scored and used for calculations. If no response was expected, testing was conducted using three animals per test article. If irritation was anticipated, one animal was tested initially. If the first animal received a score of 2 or less for either erythema or edema, 2 additional rabbits were used to conclude the test.
This total was divided by the total number of observations. The same was done for the control sites. […] These scores for each animal were added and divided by the total number of animals to give the Primary Irritation Index. […] For any response, the Maximum Irritation Response, the time of onset of the response and the time of maximum response was recorded.
To positively validate the test, 10% sodium dodecyl sulfate (SDS), which is a known dermal irritant, in petroleum jelly was applied to a 2.5 cm×2.5 cm gauze patch. As a negative control, 0.5 mL of 0.9% NaCl was applied to a 2.5 cm×2.5 cm gauze patch. A Primary Irritation Index in the moderate to severe range is considered a positive result. The test system and methods utilized were the same as described above.

Where [1] appears, read: per rabbit, 24, 48 and 72 hour observations after patch removal, direct application, sulfate.

With `CCCCCCCCCCCCOS(=O)(=O)[O-].[Na+]` [10% SDS, sodium dodecyl sulfate], under “3 animals”, the “Primary Irritation Index” value turned out to be 6.4 and the “Total Average (sum over animals)” value amounted to 19.3. Further, under setting [1], the “ED (edema) score sum” value is 19 and 21 and 14; the “ER (erythema) score sum” value is 21 and 23 and 18; the “ER + ED = Total” value is 40 and 44 and 32.
